Patent US10227345B2, “Compounds and methods for inhibiting fascin” (Cornell University, priority 2014, dated 2019)

Target: T1, human fascin 1 (Homo sapiens, UniProt Q16658)
T1 construct: GST (N, cleaved yes); made in house; host or cells: Escherichia coli BL21/DE3 (pGEX4T-fascin 1 plasmid)
Assay: Fascin inhibition (actin bundling) assay, image-based
Assay type: biochemical
Conditions: in the presence of 50 μm of the compound relative to bundle activity when the compound was not present; read-out: Inhibition (percentage reduction of bundle activity)
Protocol: Recombinant human fascin 1 was expressed as a GST fusion protein in BL21 Escherichia coli. One liter of 2YT medium with ampicillin was inoculated overnight with 3 mL of BL21/DE3 culture transformed with pGEX4T-fascin 1 plasmid and grown at 37° C. until attenuance at 600 nm (D600) reached about 0.8. The culture was then transferred to 18° C. and induced by the addition of 0.1 mM isopropyl β-d-thiogalactoside (IPTG) for 12 h. Bacteria were harvested by centrifugation at 5,000 r.p.m. for 10 min. The pellets were suspended in 30 mL of PBS supplemented with 0.2 mM PMSF, 1 mM DTT, 1% (v/v) Triton X-100 and 1 mM EDTA. After sonication, the suspension was centrifuged at 15,000 r.p.m. for 30 min to remove the cell debris. The supernatant was then incubated for 2 h with 4 mL of glutathione beads (Sigma) at 4° C. After extensive washing with PBS, the beads were resuspended in 10 mL of thrombin cleavage buffer (20 mM Tris-HCl pH 8.0, 150 mM NaCl, 2 mM CaCl2, 1 mM DTT). Fascin was released from the beads by incubation overnight with 40-100 U of thrombin at 4° C. After centrifugation, 0.2 mM PMSF was added to the supernatant to inactivate the remnant thrombin activity. The fascin protein was further concentrated with a Centricon® (Boca Raton, Fla.) filter to about 50 mg/mL.
Representative compounds described herein were tested for fascin inhibition activity. Purified fascin protein (15 μL of 0.5 μM) in buffer (100 mM KCl, 20 mM Tris/HCl, pH 7.5, 2 mM MgCl2) was added into each well of a clear 384-well flat-bottom plate (Corning) using Thermo Multidrop Combi (Fisher). Compound solutions (5 mM stock, 180 nL) were pin transferred from stock 384-well plates into the 384-well assay plates and incubated for 30 min. Then 15 μL of 0.5 μM polymerized actin (in 100 mM KCl, 20 mM Tris/HCl, pH 7.5, 2 mM MgCl2, 1 mM DTT, 1 mM ATP) (Cytoskeleton Inc.) was added, resulting in 30 μM final concentration for chemical compounds. […] Mixed solution (25 μL) was then transferred to one well in a black 384-well plate coated with poly-D-lysine, and stained actin bundles or F-actin would stick onto the poly-D-lysine plates. After the plates were thoroughly washed with 1×PBS for 3 times, the plate was imaged using an ImageXpress Micro High Content Screening System (Molecular devices). The images were processed and analyzed using MetaMorph software. The raw image data for each well was background-corrected by subtraction of the median intensities across all wells on the plate. The background-corrected data was used to compute the bundle length for each well. The negative control wells were employed for quality control: multiple DMSO-only control wells (16 wells/plate) were present on each assay plate.

SMILES | inhibition at 50 µM
Cc1ccc(Cn2nc(N)c3ccccc32)cc1 [Compound 77, 1-(4-methylbenzyl)-1H-indazol-3-amine] | < 10%
O=C(Nc1nn(Cc2ccc(C(F)(F)F)cc2)c2ccccc12)c1ccsn1 [Compound 39, N-(1-(4-(trifluoromethyl)benzyl)-1H-indazol-3-yl)isothiazole-3-carboxamide] | 50%
Cc1nocc1C(=O)Nc1nn(Cc2ccc(C(F)(F)F)cc2)c2cncc(Cl)c12 [Compound 142, N-(4-chloro-1-(4-(trifluoromethyl)benzyl)-1H-pyrazolo[3,4-c]pyridin-3-yl)-3-methylisoxazole-4-carboxamide] | 10%
Cc1occc1C(=O)Nc1nn(Cc2ccc(C(F)(F)F)nc2)c2ccccc12 [Compound 94, 2-methyl-N-(1-((6-(trifluoromethyl)pyridin-3-yl)methyl)-1H-indazol-3-yl)furan-3-carboxamide] | < 10%
Cc1ccc(-c2ccc(C(=O)Nc3nn(Cc4ccc(C(F)(F)F)cc4)c4ccccc34)o2)cc1 [Compound 3, 5-(p-tolyl)-N-(1-(4-(trifluoromethyl)benzyl)-1H-indazol-3-yl)furan-2-carboxamide] | 10%
Cc1ncsc1C(=O)Nc1nn(Cc2ccc(C(F)(F)F)nc2)c2ccc(C#N)cc12 [Compound 101, N-(5-cyano-1-((6-(trifluoromethyl)pyridin-3-yl)methyl)-1H-indazol-3-yl)-4-methylthiazole-5-carboxamide] | < 10%
Cc1ccc(-c2nn(Cc3ccc(C(F)(F)F)cc3)c3ccccc23)o1 [Compound 146, 3-(5-methylfuran-2-yl)-1-(4-(trifluoromethyl)benzyl)-1H-indazole] | 10%
O=C(Nc1nn(Cc2ccc(CO)cc2)c2ccccc12)c1ccoc1 [Compound 104, N-(1-(4-(hydroxymethyl)benzyl)-1H-indazol-3-yl)furan-3-carboxamide] | < 10%
Cc1cc[nH]c1C(=O)Nc1nn(Cc2ccc(C(F)(F)F)cc2)c2ccccc12 [Compound 27, 3-methyl-N-(1-(4-(trifluoromethyl)benzyl)-1H-indazol-3-yl)-1H-pyrrole-2-carboxamide] | < 10%
Cc1occc1C(=O)Nc1nn(Cc2ccc(C(F)(F)F)cc2)c2cncc(Cl)c12 [Compound 141, N-(4-chloro-1-(4-(trifluoromethyl)benzyl)-1H-pyrazolo[3,4-c]pyridin-3-yl)-2-methylfuran-3-carboxamide] | 10%
Cc1ccc2c(NC(=O)c3conc3C)nn(Cc3ccc(C(F)(F)F)cc3)c2n1 [Compound 133, 3-methyl-N-(6-methyl-1-(4-(trifluoromethyl)benzyl)-1H-pyrazolo[3,4-b]pyridin-3-yl)isoxazole-4-carboxamide] | < 10%
Cc1nocc1C(=O)Nc1nn(Cc2ccc(C(F)(F)F)cc2)c2cc(C(F)(F)F)ccc12 [Compound 108] | < 10%
Nc1nn(Cc2ccc(CO)cc2)c2ccccc12 [Compound 103, (4-((3-amino-1H-indazol-1-yl)methyl)phenyl)methanol] | < 10%
Cc1ccc(Cn2nc(NC(=O)c3scnc3C)c3ccccc32)cc1 [Compound 82, 4-methyl-N-(1-(4-methylbenzyl)-1H-indazol-3-yl)thiazole-5-carboxamide] | < 10%
O=C(Nc1nn(Cc2ccc(C(F)(F)F)cc2)c2ccccc12)c1cncnc1 [Compound 56, N-(1-(4-(trifluoromethyl)benzyl)-1H-indazol-3-yl)pyrimidine-5-carboxamide] | 90%
O=C(Nc1nn(Cc2ccc(C(F)(F)F)cc2)c2ccccc12)c1cc(F)ccc1F [Compound 21, 2,5-difluoro-N-(1-(4-trifluoromethyl)benzyl)-1H-(indazol-3-yl)benzamide] | < 10%
Cc1nocc1C(=O)Nc1nn(Cc2ccc(C(F)(F)F)cc2)c2c(C(F)(F)F)cccc12 [Compound 113, 3-methyl-N-(7-(trifluoromethyl)-1-(4-(trifluoromethyl)benzyl)-1H-indazol-3-yl)isoxazole-4-carboxamide] | < 10%

SMILES | inhibition at 50 µM
FC(F)(F)c1ccc(CNc2nn(Cc3ccc(C(F)(F)F)cc3)c3ccccc23)cc1 [Compound 22, N,1-bis(4-(trifluoromethyl)benzyl)-1H-indazol-3-amine] | < 10%
O=C(Nc1nn(Cc2ccc(C(F)(F)F)cc2)c2ccccc12)c1cccc(F)c1 [Compound 14, 3-fluoro-N-(1-(4-(trifluoromethyl)benzyl)-1H-indazol-3-yl)benzamide] | < 10%
N#Cc1ccc2c(c1)c(NC(=O)c1ccoc1)nn2Cc1ccc(C(F)(F)F)nc1 [Compound 98, N-(5-cyano-1-((6-(trifluoromethyl)pyridin-3-yl)methyl)-1H-indazol-3-yl)furan-3-carboxamide] | < 10%
Cc1nocc1C(=O)Nc1nn(Cc2ccc(F)cc2)c2ccccc12 [Compound 72, N-(1-(4-fluorobenzyl)-1H-indazol-3-yl)-3-methylisoxazole-4-carboxamide] | < 10%
Cc1ccc2c(NC(=O)c3ccoc3C)nn(Cc3ccc(C(F)(F)F)cc3)c2n1 [Compound 134, 2-methyl-N-(6-methyl-1-(4-(trifluoromethyl)benzyl)-1H-pyrazolo[3,4-b]pyridin-3-yl)furan-3-carboxamide] | < 10%
N#Cc1ccc2c(c1)c(N)nn2Cc1ccc(C(F)(F)F)nc1 [Compound 97, 3-amino-1-((6-(trifluoromethyl)pyridin-3-yl)methyl)-1H-indazole-5-carbonitrile] | < 10%
O=C(Nc1nn(Cc2ccc(Cl)cc2)c2ccccc12)c1cccnn1 [Compound 69, N-(1-(4-chlorobenzyl)-1H-indazol-3-yl)pyridazine-3-carboxamide] | 50%
O=C(Nc1nn(Cc2ccc(C(F)(F)F)cc2)c2ccccc12)c1cccc(Cl)c1 [Compound 7, 3-chloro-N-(1-(4-(trifluoromethyl)benzyl)-1H-indazol-3-yl)benzamide] | 10%
Cc1ncoc1C(=O)Nc1nn(Cc2ccc(C(F)(F)F)cc2)c2ccccc12 [Compound 34, 4-methyl-N-(1-(4-(trifluoromethyl)benzyl)-1H-indazol-3-yl)oxazole-5-carboxamide] | 80%
Cc1ncsc1C(=O)Nc1nn(Cc2ccc(F)cc2)c2ccccc12 [Compound 75, N-(1-(4-fluorobenzyl)-1H-indazol-3-yl)-4-methylthiazole-5-carboxamide] | < 10%
O=C(Nc1nn(Cc2ccc(C(F)(F)F)cc2)c2ccccc12)c1ccccc1F [Compound 12, 2-fluoro-N-(1-(4-(trifluoromethyl)benzyl)-1H-indazol-3-yl)benzamide] | < 10%
O=C(Nc1nn(Cc2ccc(C(F)(F)F)cc2)c2ccccc12)c1ccccc1OC(F)(F)F [Compound 52, 2-(trifluoromethoxy)-N-(1-(4-(trifluoromethyl)benzyl)-1H-indazol-3-yl)benzamide] | < 10%
Nc1nn(Cc2ccc(C(F)(F)F)cc2)c2cccc(Cl)c12 [Compound 116, 4-chloro-1-(4-(trifluoromethyl)benzyl)-1H-indazol-3-amine] | < 10%
O=C(Nc1nn(Cc2ccc(C(F)(F)F)cc2)c2ccccc12)c1cnc[nH]1 [Compound 26, N-(1-(4-(trifluoromethyl)benzyl)-1H-indazol-3-yl)-1H-imidazole-5-carboxamide] | < 10%
O=C(Nc1n[nH]c2ccccc12)c1ccoc1 [Compound 62, N-(1H-indazol-3-yl)furan-3 carboxamide] | < 10%
Cc1ncsc1C(=O)Nc1nn(Cc2ccc(C(F)(F)F)cc2)c2ccc(C(F)(F)F)cc12 [Compound 126, 4-methyl-N-(5-(trifluoromethyl)-1-(4-(trifluoromethyl)-bemzyl)-1H-indazol-3-yl)thiazole-5-carboxamide] | < 10%
CCC(=O)Nc1nn(Cc2ccc(C(F)(F)F)cc2)c2cncc(Cl)c12 [Compound 151, N-(4-chloro-1-(4-(trifluoromethyl)benzyl)-1H-pyrazolo[3,4-c]pyridin-3-yl)propionamide] | 80%
